Experiments:
Assay in all cases: relative viability (nuclei count vs DMSO), 5 days (fraction); higher = more cells survive
[1] = compound: CC[C@H](Nc1ncnc2[nH]cnc12)c1nc2cccc(F)c2c(=O)n1-c1ccccc1 [Idelalisib] + CS(=O)(=O)CCNCc1ccc(-c2ccc3ncnc(Nc4ccc(OCc5cccc(F)c5)c(Cl)c4)c3c2)o1 [Lapatinib] (partner 2 µM)
Method in brief: (§1)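 Relative viability equals treated-well nuclei counts divided by vehicle-well nuclei counts. Counts came from 4× images of lung cancer cell lines grown in 1536-well plates for 5 days after pin-tool dosing on the day after seeding. Dosing used one drug alone or a fixed anchor-drug dose plus five library-drug doses (not always all listed) in √10 steps, and values are medians of duplicate plates.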

[2] = compound: CC[C@H](Nc1ncnc2[nH]cnc12)c1nc2cccc(F)c2c(=O)n1-c1ccccc1 [Idelalisib] + NC(=O)Nc1cc(-c2cccc(F)c2)sc1C(=O)N[C@H]1CCCNC1 [AZD7762] (partner 0.2 µM)
Method in brief: as §1

[3] = compound: CC[C@H](Nc1ncnc2[nH]cnc12)c1nc2cccc(F)c2c(=O)n1-c1ccccc1 [Idelalisib] + Nc1ncn([C@H]2C[C@H](O)[C@@H](CO)O2)c(=O)n1 [Decitabine] (partner 2 µM)
Method in brief: as §1

[4] = compound: Nc1nc2[nH]cc(CCc3ccc(C(=O)N[C@@H](CCC(=O)O)C(=O)O)cc3)c2c(=O)[nH]1 [Pemetrexed] + CC1(C)CCC(c2ccc(Cl)cc2)=C(CN2CCN(c3ccc(C(=O)NS(=O)(=O)c4ccc(N[C@H](CCN5CCOCC5)CSc5ccccc5)c(S(=O)(=O)C(F)(F)F)c4)cc3)CC2)C1 [Navitoclax] (partner 0.5 µM)
Method in brief: as §1

Row | Cell Line | relative viability ([1]; first compound 0.04 µM) | relative viability ([1]; first compound 0.1265 µM) | relative viability ([1]; first compound 0.4 µM) | relative viability ([1]; first compound 1.265 µM) | relative viability ([1]; first compound 4 µM) | relative viability ([2]; first compound 0.04 µM) | relative viability ([2]; first compound 0.1265 µM) | relative viability ([2]; first compound 0.4 µM) | relative viability ([2]; first compound 1.265 µM) | relative viability ([2]; first compound 4 µM) | relative viability ([3]; first compound 0.04 µM) | relative viability ([3]; first compound 0.1265 µM) | relative viability ([3]; first compound 0.4 µM) | relative viability ([3]; first compound 1.265 µM) | relative viability ([3]; first compound 4 µM) | relative viability ([4]; first compound 0.006325 µM) | relative viability ([4]; first compound 0.02 µM) | relative viability ([4]; first compound 0.06325 µM) | relative viability ([4]; first compound 0.2 µM) | relative viability ([4]; first compound 0.002 µM)
1 | HCC-78 | 0.709 | 0.81 | 0.577 | 0.916 | 0.754 | 0.509 | 0.649 | 0.555 | 0.609 | 0.547 | 0.738 | 0.731 | 0.667 | 0.647 | 0.665 | 0.646 | 0.547 | 0.242 | 0.207 | 
2 | H3255 | 0.297 | 0.283 | 0.258 | 0.233 | 0.203 | 0.956 | 0.859 | 0.911 | 0.909 | 0.802 | 0.902 | 0.623 | 0.538 | 0.721 | 0.512 | 0.508 | 0.537 | 0.526 | 0.464 | 0.325
3 | LOU-NH91 | 0.82 | 0.737 | 0.67 | 0.725 | 0.75 | 0.833 | 0.807 | 0.686 | 0.638 | 0.673 | 0.789 | 0.84 | 0.79 | 0.78 | 0.816 | 0.727 | 0.708 | 0.431 | 0.416 | 0.629
4 | NCI-H1666 | 0.549 | 0.641 | 0.419 | 0.505 | 0.456 | 0.821 | 0.808 | 0.878 | 0.763 | 0.851 | 0.801 | 0.587 | 0.743 | 0.761 | 0.701 | 0.717 | 0.915 | 0.711 | 0.419 | 0.877
5 | NCI-H838 | 0.994 | 1.12 | 0.707 | 0.938 | 0.767 | 0.902 | 0.935 | 0.907 | 0.69 | 0.892 | 0.467 | 0.44 | 0.478 | 0.563 | 0.464 | 1.12 | 1.33 | 0.893 | 0.361 | 1.17
